Results from patent publication EP2423181A1, “Multitarget substituted biphenyl diol derivatives” (PROUS INSTITUTE FOR BIOMEDICAL RESEARCH S.A., priority 2010, dated 2012).
Counter-ions that a name gives are not always drawn. Like-named read-outs stand apart in the source and are kept apart here.

Key:
[1] = target: T1, EGFR (Homo sapiens, UniProt P00533); assay: EGF receptor tyrosine-protein kinase inhibition (ELISA of Poly[Glu:Tyr-P]); format: biochemical
T1 construct: EGF receptor tyrosin-protein kinase activity was assessed in human A431 cells; endogenous in cells; host or cells: human A431 cells
Description: EGF receptor tyrosin-protein kinase activity was assessed in human A431 cells using as a substrate Poly(Glu:Tyr) at 10 µg/ml with a preincubation and incubation times of 15 and 60 min, respectively, at 25°C respectively in 50 mM HEPES pH 7.4, 20 mM MgCl2 and 0.2 mM Na3VO4. An ELISA quantification method of Poly[Glu:Tyr-P] was employed (Cheng, K. and Koland, J.G. J Biol Chem, 1996, 271, 311-318). Table 5. Inhibition of EGFR at 10 µM

[2] = target: T2, 5-LO (Homo sapiens, UniProt P09917); assay: 5-Lipoxygenase inhibition (LTB4 enzyme immunoassay); format: biochemical
T2 construct: host or cells: Sf9 insect cells
T2 sequence (P09917 1-674): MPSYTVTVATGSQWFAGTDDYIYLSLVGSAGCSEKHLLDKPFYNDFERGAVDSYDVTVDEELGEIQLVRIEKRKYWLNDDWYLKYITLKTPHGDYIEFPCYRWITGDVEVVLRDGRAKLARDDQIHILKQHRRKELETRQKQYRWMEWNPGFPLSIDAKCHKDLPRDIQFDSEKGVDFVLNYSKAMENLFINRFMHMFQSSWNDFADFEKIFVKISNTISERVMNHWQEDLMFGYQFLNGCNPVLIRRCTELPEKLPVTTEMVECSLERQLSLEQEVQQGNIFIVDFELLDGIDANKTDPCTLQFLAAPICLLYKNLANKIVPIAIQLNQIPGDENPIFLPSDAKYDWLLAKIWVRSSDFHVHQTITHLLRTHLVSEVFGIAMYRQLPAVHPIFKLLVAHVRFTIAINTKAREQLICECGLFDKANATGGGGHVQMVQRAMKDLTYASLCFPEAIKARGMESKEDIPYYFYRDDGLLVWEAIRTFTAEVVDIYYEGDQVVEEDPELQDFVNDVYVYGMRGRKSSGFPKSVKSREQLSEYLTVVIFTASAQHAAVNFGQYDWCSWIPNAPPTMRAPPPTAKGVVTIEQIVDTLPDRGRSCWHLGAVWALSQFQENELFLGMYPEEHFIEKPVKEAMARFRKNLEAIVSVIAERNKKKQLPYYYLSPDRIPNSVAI
Description: The 5-LO-inhibitory activity of compounds of the invention was determined using previously reported assays. Briefly, lipoxygenase activity was evaluated in human recombinant insect Sf9 cells using 3µM arachidonic acid as a substrate with a preincubation and incubation times of 15 and 5 min respectively at 25°C in a 50 mM Tris-HCl, pH 7.4, 2 mM CaCl2, 1 mM ATP. The quantification method used was enzyme immunoassay determination of LTB4 and the significance criteria were established with a response equal or different of the maximum stimulation or inhibition (Noguchi, M. et al., Eur J Biochem, 1994, 222(2), 285-292; Percival, M.D. et al., Eur J Biochem, 1992, 210(1), 109-117).

[3] = tested on: tumor prostate LNCaP-FGC; assay: Tumor cell proliferation assay (alamarBlue); format: cell-based; details: Homo sapiens
Description: (§1) Changes in cell proliferation were detected based on the ability of viable cells to cause alamarBlue® to change its oxidized (non-fluorescent, blue) to a reduced (fluorescent, red) form. The alamarBlue® reaction allows the quantification of cell proliferation and examination of the metabolic activity of viable cells. Test substances were examined for activity on the proliferation of human or murine tumor cell lines at assay concentrations from 0.01 to 100 µM.

[4] = tested on: tumor liver HepG2; assay: Tumor cell proliferation assay (alamarBlue); format: cell-based; details: Homo sapiens
Description: as §1

[5] = tested on: tumor lung A549; assay: Tumor cell proliferation assay (alamarBlue); format: cell-based; details: Homo sapiens
Description: as §1

[6] = tested on: tumor leukaemia K562; assay: Tumor cell proliferation assay (alamarBlue); format: cell-based; details: Homo sapiens
Description: as §1

[7] = EGFR, at 10 µM, read-out: % Inhibition
[8] = 5-LO, at 10 µM, read-out: % Inhibition
[9] = tumor prostate LNCaP-FGC, read-out: IC50
[10] = tumor liver HepG2, read-out: IC50
[11] = tumor lung A549, read-out: IC50
[12] = tumor leukaemia K562, read-out: IC50

T1 sequence (P00533 25-1210): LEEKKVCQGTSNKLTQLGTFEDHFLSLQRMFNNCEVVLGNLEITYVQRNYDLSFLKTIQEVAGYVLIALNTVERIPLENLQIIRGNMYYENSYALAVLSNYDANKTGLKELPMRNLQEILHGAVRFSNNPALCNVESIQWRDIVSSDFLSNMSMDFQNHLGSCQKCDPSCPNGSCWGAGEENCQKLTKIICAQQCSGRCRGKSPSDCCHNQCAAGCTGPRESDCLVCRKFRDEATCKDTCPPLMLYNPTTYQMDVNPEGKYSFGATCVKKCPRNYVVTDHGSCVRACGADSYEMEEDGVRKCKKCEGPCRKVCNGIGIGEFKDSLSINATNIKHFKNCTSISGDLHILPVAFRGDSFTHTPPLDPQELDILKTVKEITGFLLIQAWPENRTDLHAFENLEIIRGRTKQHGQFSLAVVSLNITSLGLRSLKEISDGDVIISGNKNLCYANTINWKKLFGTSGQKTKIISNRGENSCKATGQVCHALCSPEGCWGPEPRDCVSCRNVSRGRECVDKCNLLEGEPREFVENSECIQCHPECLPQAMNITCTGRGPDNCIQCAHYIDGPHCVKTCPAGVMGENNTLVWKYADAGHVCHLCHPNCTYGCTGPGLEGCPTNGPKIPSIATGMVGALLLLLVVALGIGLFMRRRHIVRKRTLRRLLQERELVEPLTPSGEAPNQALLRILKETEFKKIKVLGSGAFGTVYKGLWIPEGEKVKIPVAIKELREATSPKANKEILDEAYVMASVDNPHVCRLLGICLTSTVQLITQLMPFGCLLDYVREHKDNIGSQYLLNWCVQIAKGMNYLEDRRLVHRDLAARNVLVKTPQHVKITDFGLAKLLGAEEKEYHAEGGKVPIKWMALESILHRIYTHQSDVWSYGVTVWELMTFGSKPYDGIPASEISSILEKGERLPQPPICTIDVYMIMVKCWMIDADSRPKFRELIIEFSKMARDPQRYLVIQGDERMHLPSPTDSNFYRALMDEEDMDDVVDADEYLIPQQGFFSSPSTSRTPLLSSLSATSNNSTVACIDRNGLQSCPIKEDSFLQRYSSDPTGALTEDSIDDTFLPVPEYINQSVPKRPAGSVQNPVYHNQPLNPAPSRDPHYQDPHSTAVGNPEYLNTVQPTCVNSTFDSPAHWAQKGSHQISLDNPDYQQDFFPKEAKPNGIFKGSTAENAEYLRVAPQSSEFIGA

| SMILES | inhibition at 10 µM [1, 7] [%] | inhibition at 10 µM [2, 8] [%] | IC50 [3, 9] [µM] | IC50 [4, 10] [µM] | IC50 [5, 11] [µM] | IC50 [6, 12] [µM] | inhibition at 10 µM [1] [%] | inhibition at 10 µM [2] [%] | IC50 [3] [µM] | IC50 ([4]; HepG2) [µM] | IC50 ([5]; A549) [µM] | IC50 ([6]; K562) [µM] |
| --- | --- | --- | --- | --- | --- | --- | --- | --- | --- | --- | --- | --- |
| C=CCc1ccc(O)c(-c2cc(CC=C)ccc2OC(CCNC)c2ccccc2)c1.Cl (stereo not drawn) [Example 1, 5,5'-Diallyl-2'-[3-(methylamino)-1-phenylpropoxy]biphenyl-2-ol hydrochloride] | 72 | 100 | 13 | 1.4 | 5 | 1.9 |  |  |  |  |  |  |
| C=CCc1ccc(O)c(-c2ccc(OC(CCNC)c3ccccc3)c(CC=C)c2)c1 (stereo not drawn) [Example 5, 3',5-Diallvl-4'-13-(methylamino)-1-phenylpropoxy]biphenyl-2-ol hydrochloride] |  |  |  |  |  |  | 99 | 101 | 1.5 | 1 | 1.2 | 1.4 |
| C=CCc1ccc(O)c(-c2ccc(O)c(CC=C)c2)c1 [Honokiol, reference compound] | 7 | 85 | 16 | 12 | 12 | 16 |  |  |  |  |  |  |
